Values joined by “and” are separate entries in the source; they are usually repeats but may differ in a detail not shown here. Equal values may be shown once. “Also recorded” adds a separate entry of the source.
How the values were obtained:
[1] = Pharmacokinetics of [3H]-FTS in the mouse brain; assay type: in vivo; conditions: [3H]-FTS 3 mg/kg i.p.
Procedure: Farnesyl 1-^3H-thiosalicylic acid ([^3H]-FTS), 12.5 Ci/mmol, 1 mCi/mL, was purchased from American Radiolabeled Chemicals (ARC; St. Louis, Mo., U.S.A.). The labeled drug was isotopically diluted with unlabeled FTS. Mice (ICR strain) were injected i.p. with 0.1 ml of this FTS solution (14.8 μCi, 351 nmol, 3 mg/kg). At each time point (2.5, 5, 10, 20, 60, and 120 min) after the injection, two mice were killed and their brains were removed. The forebrains were washed in PBS, weighed and homogenized, and samples were counted in a scintillation fluid using an LKB β-counter with automatic correction for quenching. Data are expressed as [^3H]-FTS in dpm/g tissue as a function of time.
First it was necessary to determine whether FTS can enter the brain, and if so, whether it can exist there in the micromolar concentration range previously found to be relevant to its efficacy as a Ras inhibitor in vitro (Kloog et al. 1999). To this end, we performed pharmacokinetic experiments in which mice received [^3H]-FTS (3 mg/kg, i.p.), and the amounts of labeled inhibitor in the brain were then determined by counting radioactivity in samples of brain homogenates. […] Based on the specific activity of [^3H]-FTS and assuming a homogeneous distribution in the brain, we estimated that the peak concentration of FTS was 4.5 μM. Thus, under the conditions employed here, it appears that a pharmacologically relevant concentration of FTS in the brain was achieved.

[2] = tested on: primary hippocampal and cortical neuronal cultures; assay type: cell-based, rat
Procedure: Hippocampal and cortical neuronal cultures were prepared from embryonic rat brain essentially as described by Mattson (Mattson P M, Barger S W, Begley J M and Mark R J, Methods Cell Biol 1995; 46: 187-216). Briefly, Sprague Dawley embryos (17-18 days of gestation) were removed and their brains were dissected under the hood and kept in cold in sterile HEPES buffered Hank's balanced salt solution (HBBS) lacking Ca^2+ and Mg^2+, containing 10 μg/ml gentamicin sulfate. The brain regions under study were dissected and cells were dissociated by mild 0.25% trypsin, counted and the dissociation buffer was replaced by culture medium as detailed in Mattson. The cells were plated on poly-L-lysine ([…] solution) coated 24 well plates in Neurobasal medium (Gibco, Grand Island, N.Y. # 2110 3-049) prepared as detailed in Mattson. Hippocampal or cortical cells were plated at a density of 5×10^5 cells per well in 24 well plates and grown in 1 ml medium. Cultures were a kept in humidified 95%, 5% air/CO2 incubator at 37 C for 7 days and then used for the experiments.
Cells were treated with 25 μM FTS either 24 h prior to glutamate (200 μM) treatment or immediately after glutamate treatment. Assays were performed in triplicates. Twenty-four hours after the glutamate treatment, the cells were subjected to viability-cytotoxicity assay using the Live/Dead reagent kit (L-7013, Molecular Probes) essentially as described by the manufacturer. Fluorescent images for live cells (Syto 10, green) and of dead cells (DEAD red) were collected with appropriate filters within 1 h of staining. The number of live cells was estimated by counting the green-labeled cells in 3 fields in each well. The number of live cells in each of the triplicate experimental samples was averaged. These values were used to estimate the percent of cell death comparing the glutamate treated cells (with or without FTS) to untreated controls. The read labeled dead cells could not be used for accurate estimation of cell death under the conditions used because unsynchronized cell-death leads to disintegration of dead cells resulting in inaccurate estimation of the number of dead cells.
In the typical experiments, either hippocampal or cortical neuronal culture was exposed to 25 μM FTS 24 h prior to the addition of glutamate. […] The cells were then exposed to 200 μM glutamate for 30 min. The medium was replaced by glutamate-free medium and 24 h later the cells were subjected to the Live/Dead assay. […] This level of cell death was used as a reference point in all experiments.

[3] = tested on: phospho-ERK; assay: ERK and phospho-ERK immunoblot in brains of CHI mice; assay type: in vivo, mouse; conditions: 2 hrs after CHI
Procedure: ERK and phospho-ERK were determined in 30 μg of brain extract proteins by immunoblotting, ECL, and densitometry (Paz et al., 2000). ERK immunoblots were incubated with 1:2000 rabbit anti-ERK1/2 Ab (Santa-Cruz) and then with 1:1000 peroxidase-goat anti rabbit IgG. Phospho-ERK immunoblots were incubated with 1:10,000 mouse anti-phospho-ERK Ab (Sigma) and then with 1:10,000 peroxidase-goat anti-mouse IgG.

[4] = tested on: rats subjected to closed head injury (CHI); assay: Neuroprotection, rat CHI model (NSS); assay type: in vivo
Procedure: Sabra (strain of the Hebrew University) rats (200-220 gr) were used. A weight (200 g) was dropped on the cone fixed on the exposed skull at the site (frontal left cortex) designated for injury (from a height of 20 cm), resulting in a focal injury. A maximal Neurological Severity Score (NSS) of 17 indicates severe neurological dysfunction, with failure of all tasks, whereas a score of zero is achieved by healthy uninjured animals. The NSS at 1 h after trauma reflects the initial severity of injury and is inversely correlated with neurological outcome. […] To assess the effect of FTS on neurological recovery, rats were randomly assigned to either vehicle or FTS treatment, given immediately after the initial NSS evaluation (at 1 hr after CHI). These assessments were performed by an observer blinded to the kind of treatment the animals have received. The extent of recovery (ΔNSS) was calculated as the difference between NSS at 1 hr and that at any later time point: ΔNSS (at time t)=NSS (1 h)−NSS (t).
Thus, the greater ΔNSS reflects greater recovery, and this parameter serves as a tool for evaluation of drug effects.

[5] = 25 μM FTS 24 h prior to 200 μM glutamate for 30 min, Live/Dead assay 24 h later
[6] = FTS 5 mg/kg bw ip 1 h after CHI, mean ± SD of 7 rats

For `CC(C)=CCC/C(C)=C/CC/C(C)=C/CSc1ccccc1C(=O)O` [FTS, farnesyl-thiosalicylic acid], the “entry of FTS into the brain” value ([1]; mouse) was “enters the mouse brain; also recorded: crosses the blood-brain barrier”, the “time for which FTS amounts in the brain remain relatively high” value ([1]; mouse forebrain) was “at least 2 hrs” and the “time to peak amounts of FTS in the brain” value ([1]; mouse forebrain) was 20 to 30 min. The “peak concentration of FTS in the brain” value ([1]; estimated from specific activity assuming homogeneous distribution in the brain) was 4.5 µM, the “toxic effects of FTS alone on cultured hippocampal or cortical neurons” value [2] was “no toxic effects” and the “toxic effect of glutamate in cortical cultures” value [2, 5] was “reduced the toxic effect of glutamate”. The “toxic effect of glutamate in hippocampal cultures” value [2, 5] was “markedly reduced”, the “neuroprotective effect against the glutamate toxicity” value ([2]; hippocampal and cortical cultures, 25 μM FTS 24 h prior to 200 μM glutamate) was 70% and the “percent cell death relative to glutamate treated cells (100% cell death)” value ([2]; hippocampal and cortical cultures, 25 μM FTS 24 h prior to 200 μM glutamate, FIG. 10) was 30%. The “effect on amounts of total ERK” value [3] was “Neither inhibitor altered”, the “inhibition (reduction) of phospho-ERK, right (contra-lateral) hemisphere” value ([3]; drug i.p. 1 hr after CHI, FTS 5 mg/kg, MK-801 0.5 mg/kg or 1 mg/kg) was 73.2±8.3% and 73±8% and the “Neurological Severity Score (NSS) 1 h” value ([4]; 1 h after CHI, before treatment (baseline), maximal score 17, mean ± SD of 7 rats) was 9.71 ± 1.97. For the same molecule, the “ΔNSS = NSS (1 h) − NSS (time), 24 h” value [4, 6] was 1.86 ± 1.34, the “ΔNSS = NSS (1 h) − NSS (time), 3 d” value [4, 6] was 3.00 ± 1.29 and the “ΔNSS = NSS (1 h) − NSS (time), 7 d” value ([4]; FTS 5 mg/kg bw ip 1 h after CHI, mean ± SD of 7 rats, p = 0.019 vs control) was 5.14 ± 1.07.

Reference: patent publication US20070054886A1, “Ras antagonists for treating neurodegenerative disorders” (RAMOT AT TEL AVIV UNIVERSITY, LTD., priority 2003, published 2007)
